Starred links: 1 amine or outer side, 2 acyl side, 3 side chain; linkers in the order of their positions; H or OH if unused. Residues, ends and D or L forms follow the SMILES beside them. *: point of attachment. Doxorubicin(3'-N) = COc1cccc2c1C(=O)c1c(O)c3c(c(O)c1C2=O)C[C@@](O)(C(=O)CO)C[C@@H]3O[C@H]1C[C@H](N*)[C@H](O)[C@H](C)O1; DBCO = C1#Cc2ccccc2N(*)Cc2ccccc21; Suc = O=C(CCC(=O)[*:2])[*:1]
Assays:
[1] = tested on: HT1080 human fibrosarcoma cells; experiment: WST-1 cell proliferation / cytotoxicity assay; assay type: cell-based; conditions: for Cytotoxicity (in words) / Survival Rate (SR): HT1080, 72 h; for Cytotoxicity (in words): WST-1, 5-50 μM DOX eq (Figure S14), n = 3
Method: Human fibrosarcoma cell line HT1080 (ATCC® CCL-121™, Manassas, VA, USA) was grown as monolayers in DMEM (1x) + GlutaMAX™-1 medium supplemented with 10% fetal calf serum and […] streptomycin and 100 IU/mL penicillin. Cells were cultivated at 37 °C in humidified 95% air and 5% CO2 atmosphere and routinely maintained by serial passage in a new medium. Prior to experiments, cells were tested for mycoplasma contamination with the MycoAlert™ kit.
Cells were seeded at a density of 8000 cells/well in a 96-well plate (clear-bottom black plate, 3603, Corning, Luzern, Switzerland) one day prior to the experiment. […] Cell proliferation assays were performed at 72 h upon incubation using a Cell Proliferation reagent (WST-1) following the manufacturer’s recommendations. The absorption was measured at 450 nm with a plate reader (Safire). The percentage of cell survival was calculated with respect to control samples treated with either medium or a solution of DMSO (50%) in serum-free medium, as follows: [A (test-conc.) − A (100% dead)/A (100% viable) − A (100% dead)] × 100. Mean values from three wells were determined and expressed as ± S.D. All assays were done in triplicates.

HT1080 cells [2] = experiment: Confocal fluorescence microscopy, co-localization (PCC) of DOX fluorescence; assay type: cell-based, human; conditions: 24 h incubation, 0.3 μM free DOX; mean ± SD of three images
Method: HT1080 cells were seeded one day before the experiment at a density of 78,500 cells in 1.3 mL of complete medium into a glass-bottom microwell dish (35 mm petri dish, 14 mm microwell, MatTek Corporation). […] Control cells were incubated in serum-free medium under the same experimental conditions. Cells were then washed with DPBS and incubated for 20 min with 1 μg/mL Hoechst 33,342 stain and 70 nM of LysoTracker® Green DND-26. Prior to imaging, cells were washed with DPBS and serum-free medium was put into every dish. Fluorescence imaging was carried our using a Zeiss LSM780 (Zeiss, Jena, Germany) inverted confocal microscope. The microscopic images were using 405 and 488 nm lasers as excitation wavelengths, 495–525, 575–625 and 415–492 nm emission filters, and an objective lens, Plan-Aprochromat 63 x/1.4 oil DIC M27. During the image acquisition time, slides were kept at 37 °C in a humidified chamber (INUBTF-WSKM-F1, Tokai Hit, Japan). ZEN 2 software (Zeiss, Jena, Germany) was used for image processing. […] […] PCC was calculated in regions of interest (ROI), separately defined for each image by masking the entire dataset with the red channel (DOX fluorescence). The value of PCC for each experiment is presented as mean ± S.D. calculated from three separate images.

HT1080 cells [3] = experiment: Flow cytometry of intracellular and nuclear DOX accumulation; assay type: cell-based, human; conditions: 24 h, 0.3 μM (DOX eq), isolated nuclei, triplicates
Method: (§1) HT1080 cells were seeded in 6-well plates (flat-bottom cell culture microplate, 3505, Corning, Luzern, Switzerland) at a density of 150,000 cells/well and were left to attach overnight. […] Cells were incubated for 24, 48 and 72 h in the dark at 37 °C. Cells were washed 3 times with DPBS, detached from the surface with a cell-scraper and resuspended in 500 μL of DPBS. Cells were analyzed immediately on a BD LSR Fortessa cell analyzer (BD Biosciences, San Jose, CA, USA). […] For this purpose, 1 mM Tris buffer was prepared and the pH was adapted to 7.6 with 30% HCl. Igepal CA-630 and Hoechst 3342 (5 μg/mL final concentration) were added, and the reagent was filtered. […] Samples were incubated at 4 °C for 1 h and analyzed with a BDLSR Fortessa cell analyzer. Acquisition data were analyzed using FlowJo V10 software (FLOWJO, LCC, Ashland, OR, USA). For cell cycle analysis, the Dean-Jett-Fox model was used. All measurements were done in triplicates. Mean values and S.D. were calculated and plotted for each tested compound. Fluorescence of control cells incubated in serum-free medium was subtracted from acquired DOX-emitted fluorescence.

HT1080 cells [4] = experiment: Cell cycle analysis by flow cytometry (Hoechst 33342, Dean-Jett-Fox model); assay type: cell-based, human
Method: as §1, with “compound.” for “compound. Fluorescence of control cells incubated in serum-free medium was subtracted from acquired DOX-emitted fluorescence.”

[5] = 24 h, 0.3 μM (DOX eq), mean ± S.D., n = 3
[6] = 48 hours, equimolar concentration (DOX eq)
[7] = 72 hours, equimolar concentration (DOX eq)

Molecule: COc1cccc2c1C(=O)c1c(O)c3c(c(O)c1C2=O)C[C@@](O)(C(=O)CO)C[C@@H]3O[C@H]1C[C@H](NC(=O)CNC(=O)[C@H](C)NC(=O)[C@H](C)NC(=O)[C@H](CCCNC(=N)N)NC(=O)[C@H](CCCNC(=N)N)NC(=O)CNC(=O)[C@H](C)NC(=O)CNC(=O)CCC(=O)N2Cc3ccccc3C#Cc3ccccc32)[C@H](O)[C@H](C)O1 ({DBCO-Suc}-GAGRRAAG-{Doxorubicin(3'-N)})
- Cytotoxicity (in words) [1]: significant cytotoxicity

Molecule: COc1cccc2c1C(=O)c1c(O)c3c(c(O)c1C2=O)C[C@@](O)(C(=O)CO)C[C@@H]3O[C@H]1C[C@H](N)[C@H](O)[C@H](C)O1.Cl [DOX, Doxorubicin hydrochloride salt]
- Survival Rate (SR) ([1]; WST-1, [Dox] 0.01 mM as printed, SD 9.7 wrapped): 86.4%
- Survival Rate (SR) ([1]; WST-1, [Dox] 0.05 mM as printed, SD 10.6 wrapped): 81.7%
- Survival Rate (SR) ([1]; WST-1, [Dox] 0.10 mM as printed, SD 9.7 wrapped): 69.9%
- Survival Rate (SR) ([1]; WST-1, [Dox] 0.15 mM as printed, SD 7.3 wrapped): 53.7%
- Survival Rate (SR) ([1]; WST-1, [Dox] 0.2 mM as printed, SD 4.7 wrapped): 34.6%
- Survival Rate (SR) ([1]; WST-1, [Dox] 0.4 mM as printed, SD 1.3 wrapped): 6.9%
- Survival Rate (SR) ([1]; WST-1, [Dox] 0.5 mM as printed, SD 0.4 wrapped): 1.3%
- Survival Rate (SR) ([1]; WST-1, [Dox] 0.6 mM as printed, SD 0.5 wrapped): 0.4%
- Survival Rate (SR) ([1]; WST-1, [Dox] 0.8 mM as printed, SD 0.7 wrapped): 0%
- Survival Rate (SR) ([1]; WST-1, [Dox] 1.0 mM as printed, SD 0.5 wrapped): 0.4%
- IC50 ([1]; HT1080, 72 h incubation, WST-1, free DOX (data not shown)): 160 nM
- PCC between DOX and Hoechst 33342 (HT1080 cells [2]): 0.41 ± 0.10
- DOX accumulation in the nucleus (HT1080 cells [3]): significant DOX accumulation in the nucleus
- % G1 (HT1080 cells [4]; [5]): 30.4 ± 2.3%
- % S (HT1080 cells [4]; [5]): 36.7 ± 11.9%
- % G1 (HT1080 cells [4]; [6]): 29.2 ± 1.5%
- % G2 (HT1080 cells [4]; [6]): 33.6 ± 5.7%
- % S (HT1080 cells [4]; [6]): 32.3 ± 4.4%
- % G1 (HT1080 cells [4]; [7]): 32.6 ± 3.2%
- % G2 (HT1080 cells [4]; [7]): 27.3 ± 8.1%
- % S (HT1080 cells [4]; [7]): 35.8 ± 6.7%

Molecule: PEG10-GAGRRAAG-DOX
- Cytotoxicity (in words) [1]: no cytotoxicity

Source: article PMC7570921, “Cathepsin B-Cleavable Cyclopeptidic Chemotherapeutic Prodrugs” (Molecules, 2020)
